Common to all, as to type: functional
Assay [1] has as its system Staphylococcus aureus. The assay is described as follows: Antimicrobial activity against methicillin-resistant Staphylococcus aureus 5 at 100 ug/disk after 24 hrs by disk diffusion method. Particulars: read-out: IZ.
In assay [2] the test system is Staphylococcus aureus. Description: Antimicrobial activity against methicillin-resistant Staphylococcus aureus COL at 100 ug/disk after 24 hrs by disk diffusion method. The following applies: read-out: IZ.
For assay [3], the system named is Helicobacter pylori. The assay is described as follows: Antimicrobial activity against Helicobacter pylori ATCC 43504 at 100 ug/disk after 4 days by disk diffusion method. Particulars: ATCC 43504, 96 h, read-out: IZ.
For assay [4], the system named is Helicobacter pylori. Description: Antimicrobial activity against Helicobacter pylori ATCC 43504 at 0.25 ug/disk after 4 days by disk diffusion method. Particulars: ATCC 43504, 96 h, read-out: IZ.
Assay [5] relates to Staphylococcus aureus. The assay is described as follows: Antimicrobial activity against methicillin-resistant Staphylococcus aureus 5 at 20 ug/disk after 24 hrs by disk diffusion method. Particulars: read-out: IZ.
Assay [6] relates to Staphylococcus aureus. Description: Antimicrobial activity against methicillin-resistant Staphylococcus aureus COL at 20 ug/disk after 24 hrs by disk diffusion method. Particulars: read-out: IZ.

This is an account of results in ChEMBL document CHEMBL1158039, “Chemical constituents from the peels of Citrus sudachi” (2006).

Structures are written as SMILES.

For `COc1c(O)c(OC)c2oc(-c3ccc(O)cc3)cc(=O)c2c1O`, the zone of inhibition at 100 µg/disc with Staphylococcus aureus [1] was determined as 23.8 mm; in the assay on Staphylococcus aureus [2], 12.5 mm; in the assay on Helicobacter pylori [3], 10.5 mm.
As for `CC1(C)S[C@@H]2[C@H](NC(=O)[C@H](N)c3ccc(O)cc3)C(=O)N2[C@H]1C(=O)O` [AMOXICILLIN], in the assay on Helicobacter pylori [4], the zone of inhibition at 0.25 µg/disc was determined as 33 mm.
Turning to `CC(=O)OCC1=C(C(=O)O)N2C(=O)[C@@H](NC(=O)CSc3ccncc3)[C@H]2SC1` [CEPHAPIRIN], the zone of inhibition at 20 µg/disc in the assay with Staphylococcus aureus [5] was determined as 9.4 mm; in the assay on Staphylococcus aureus [6], 8.2 mm.
For the compound `COc1cc(-c2cc(=O)c3c(O)c(OC)c(O)c(OC)c3o2)ccc1O` [SUDACHITIN], the figures for the zone of inhibition at 100 µg/disc with Staphylococcus aureus [1], in the assay on Staphylococcus aureus [2] and with Helicobacter pylori [3] were 25.4 mm, 12 mm and 14 mm, respectively.
